Columns and labels:
[1] = human gut metagenome, 24 h, 2 µM
[2] = (§1) The drug is tested on Z-012 corresponding to metagenome with ENA study accession number: PRJEB37062 and ENA sample accession number: ERS12561812 for biotransformation under anaerobic condition. The drug concentrations were measured over 9 timepoints collected between 0 and 24 hours of incubation by liquid-chromatography-coupled mass spectrometry (LC–MS); details: 2 µM
[3] = as §1, with “Z-026” for “Z-012”, “ERS12561825” for “ERS12561812”; details: 2 µM
[4] = human gut metagenome, 24 h, 2 µM; remark: listed apart in the source
[5] = (§2) The drug is tested on Z-029 corresponding to rat gut metagenome with ENA study accession number: PRJEB37062 and ENA sample accession number: ERS12561828 for biotransformation under anaerobic condition. The drug concentrations were measured over 9 timepoints collected between 0 and 24 hours of incubation by liquid-chromatography-coupled mass spectrometry (LC–MS); details: 2 µM
[6] = as §2, with “on WLS-082” for “on Z-029”, “to human” for “to rat”, “number: ERS12561751” for “number: ERS12561828”; details: 2 µM
[7] = as §2, with “on Z-017” for “on Z-029”, “to mouse” for “to rat”, “number: ERS12561816” for “number: ERS12561828”; details: 2 µM
[8] = as §2, with “on WLS-170” for “on Z-029”, “to human” for “to rat”, “number: ERS12561762” for “number: ERS12561828”; details: 2 µM
[9] = human gut metagenome, 24 h, 2 µM; remark: listed apart in the source
[10] = as §2, with “on WLS-010” for “on Z-029”, “to human” for “to rat”, “number: ERS12561743” for “number: ERS12561828”; details: 2 µM
[11] = human gut metagenome, 24 h, 2 µM; remark: listed apart in the source
[12] = as §2, with “on Z-022” for “on Z-029”, “to mouse” for “to rat”, “number: ERS12561821” for “number: ERS12561828”; details: 2 µM
[13] = human gut metagenome, 24 h, 2 µM; remark: listed apart in the source
[14] = human gut metagenome, 24 h, 2 µM; remark: listed apart in the source
[15] = as §2, with “Z-014” for “Z-029”, “ERS12561814” for “ERS12561828”; details: 2 µM
[16] = human gut metagenome, 24 h, 2 µM; remark: listed apart in the source
[17] = as §2, with “on WLS-086” for “on Z-029”, “to human” for “to rat”, “number: ERS12561752” for “number: ERS12561828”; details: 2 µM
[18] = as §1, with “Z-023” for “Z-012”, “ERS12561822” for “ERS12561812”; details: 2 µM
[19] = as §2, with “on Z-020” for “on Z-029”, “to rabbit” for “to rat”, “number: ERS12561819” for “number: ERS12561828”; details: 2 µM
[20] = human gut metagenome, 24 h, 2 µM; remark: listed apart in the source
Further: call rule not given here.

SMILES | Bacterial Biotransformation [1] | Bacterial Biotransformation [2] | Bacterial Biotransformation [3] | Bacterial Biotransformation [4] | Bacterial Biotransformation [5] | Bacterial Biotransformation [6] | Bacterial Biotransformation [7] | Bacterial Biotransformation [8] | Bacterial Biotransformation [9] | Bacterial Biotransformation [10] | Bacterial Biotransformation [11] | Bacterial Biotransformation [12] | Bacterial Biotransformation [13] | Bacterial Biotransformation [14] | Bacterial Biotransformation [15] | Bacterial Biotransformation [16] | Bacterial Biotransformation [17] | Bacterial Biotransformation [18] | Bacterial Biotransformation [19] | Bacterial Biotransformation [20]
CCN(CC)C(=O)C1(c2ccccc2)CC1CN (configuration not stated) | Compound NOT metabolized | Compound NOT metabolized | Compound NOT metabolized | Compound NOT metabolized | Compound NOT metabolized | Compound NOT metabolized | Compound NOT metabolized | Compound metabolized | Compound NOT metabolized | Compound NOT metabolized | Compound NOT metabolized | Compound NOT metabolized | Compound NOT metabolized | Compound NOT metabolized | Compound NOT metabolized | Compound NOT metabolized | Compound NOT metabolized | Compound NOT metabolized | Compound NOT metabolized | Compound NOT metabolized
COc1ccc(/C=C/C(=O)Nc2ccccc2C(=O)O)cc1OC | Compound NOT metabolized | Compound NOT metabolized | Compound metabolized | Compound NOT metabolized | Compound NOT metabolized | Compound metabolized | Compound NOT metabolized | Compound NOT metabolized | Compound NOT metabolized | Compound metabolized | Compound NOT metabolized | Compound metabolized | Compound NOT metabolized | Compound metabolized | Compound metabolized | Compound NOT metabolized | Compound NOT metabolized | Compound metabolized | Compound metabolized | Compound metabolized
CC(NC(C)(C)C)C(=O)c1cccc(Cl)c1 (configuration not stated) [BUPROPION] | Compound NOT metabolized | Compound NOT metabolized | Compound NOT metabolized | Compound NOT metabolized | Compound NOT metabolized | Compound NOT metabolized | Compound NOT metabolized | Compound NOT metabolized | Compound NOT metabolized |  | Compound NOT metabolized | Compound NOT metabolized | Compound NOT metabolized | Compound NOT metabolized | Compound NOT metabolized | Compound NOT metabolized | Compound NOT metabolized | Compound NOT metabolized | Compound NOT metabolized | Compound metabolized
COC1=C(OC)C(=O)C(CCCCCCCCCCO)=C(C)C1=O [IDEBENONE] | Compound metabolized | Compound metabolized | Compound NOT metabolized | Compound metabolized | Compound NOT metabolized | Compound metabolized | Compound NOT metabolized | Compound NOT metabolized | Compound metabolized | Compound metabolized | Compound metabolized | Compound NOT metabolized | Compound metabolized |  | Compound metabolized | Compound metabolized |  | Compound metabolized | Compound metabolized | 
Cc1cc2c(s1)Nc1ccccc1N=C2N1CCN(C)CC1 [OLANZAPINE] | Compound NOT metabolized | Compound NOT metabolized | Compound NOT metabolized |  | Compound NOT metabolized | Compound NOT metabolized | Compound NOT metabolized |  |  | Compound NOT metabolized | Compound metabolized | Compound NOT metabolized | Compound metabolized | Compound metabolized | Compound NOT metabolized | Compound metabolized |  | Compound NOT metabolized | Compound NOT metabolized | Compound NOT metabolized
COc1cc(NC(C)CCCN)c2ncccc2c1.O=P(O)(O)O.O=P(O)(O)O (configuration not stated) [PRIMAQUINE PHOSPHATE] | Compound NOT metabolized | Compound NOT metabolized | Compound NOT metabolized | Compound metabolized | Compound NOT metabolized | Compound metabolized | Compound NOT metabolized | Compound NOT metabolized | Compound NOT metabolized |  | Compound metabolized | Compound NOT metabolized | Compound NOT metabolized | Compound NOT metabolized | Compound NOT metabolized | Compound NOT metabolized |  | Compound NOT metabolized | Compound NOT metabolized | Compound NOT metabolized
CC(=O)OCC(=O)NCCCOc1cccc(CN2CCCCC2)c1 [ROXATIDINE ACETATE] | Compound metabolized | Compound metabolized | Compound metabolized |  | Compound metabolized | Compound metabolized | Compound metabolized |  | Compound metabolized | Compound metabolized | Compound metabolized | Compound metabolized | Compound metabolized | Compound metabolized | Compound metabolized | Compound metabolized | Compound metabolized | Compound metabolized | Compound metabolized | Compound metabolized
CN[C@H]1CC[C@@H](c2ccc(Cl)c(Cl)c2)c2ccccc21 [SERTRALINE] | Compound metabolized | Compound metabolized | Compound metabolized | Compound metabolized | Compound NOT metabolized | Compound metabolized | Compound metabolized | Compound metabolized | Compound NOT metabolized |  | Compound NOT metabolized | Compound NOT metabolized | Compound metabolized | Compound NOT metabolized | Compound NOT metabolized | Compound NOT metabolized | Compound metabolized | Compound metabolized | Compound metabolized | Compound metabolized
